Entries after “also recorded” stand apart in the source; their conditions may differ. Where two headings read alike, the source gives them in different places.
How the values were obtained:
[1] = tested on: K 562 parent cells (human bone marrow leukemia); test: Extinction rate, OR 36-3 and cisplatin, K 562 parent cells; assay type: cell-based; details: 2 μg/ml of the cisplatin, single
Method: (§1) The extinction rates were measured in accordance with the same procedures of Example 2 except that K 562 parent cells (human bone marrow leukemia) and its cisplatin resistance cells (K652/CDDP) were employed in place of the human leutecyte strain cell employed in Comparative Example 1 and Example 2, and cisplatin was employed in place of the vincristin.

[2] = tested on: cisplatin resistance cells (K652/CDDP); test: Extinction rate, OR 36-3 and cisplatin, cisplatin resistance cells; assay type: cell-based, human; details: 5 μg/ml of the cisplatin, single; resistance cells versus K 562 parent cells
Method: as §1

[3] = tested on: human leutecyte strain cell (RPMI-8402); test: Extinction effect of compatible administration of l-OHP and a compatible agent on tumor cells (compatible efficiency OE); assay type: cell-based; details: for Compatible Effects of l-OHP and Compatible Agent, Simultaneous Administration: both added day 1
In short: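 RPMI-8402 cells (10^6/ml, 15% fetal bovine serum) got l-OHP (5 or 1 μg/ml) with a partner agent at high or low dose (e.g. cisplatin 1 or 0.5, 5-FU 10 or 5 μg/ml; irinotecan fixed at 10 μg/ml) on the same day or staggered days 1–4 in either order. Cell kill was corrected for the untreated control. A combination index of 85–115% was scored additive, >115% synergistic.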

[4] = tested on: living cells; test: Fluorescence dye bonded to living cells: does the cell stay alive; assay type: cell-based
Excerpt: As the said fluorescence dye, the above DAPI can be employed. Although the DAPI itself is known, the use for the observation of the cell division while keeping the cells alive is unknown. The present inventors have investigated such fluorescence dye as Hoechst 33258, acridine orange and acridine yellow other than the DAPI.

[5] = tested on: living cells; details: dye bonded to the cell; inventor's earlier meeting article (1990); cited from earlier work
[6] = larger dosage of compatible agent (μg/ml: cisplatin 1, 5-FU 10, irinotecane 10, adriamycin 0.05, vincristin 0.05, vindecin 0.05, etoposide 1, bleomycin 10, mitoxantrone 0.1, mitomycine 1), l-OHP 1 μg/ml (5 μg/ml with irinotecane) added day 1
[7] = larger dosage of compatible agent added day 1 (μg/ml: cisplatin 1, 5-FU 10, irinotecane 10, adriamycin 0.05, vincristin 0.05, vindecin 0.05, etoposide 1, bleomycin 10, mitoxantrone 0.1, mitomycine 1), l-OHP 1 μg/ml (5 μg/ml with irinotecane)
[8] = smaller dosage of compatible agent (μg/ml: cisplatin 0.5, 5-FU 5, irinotecane 10, adriamycin 0.01, vincristin 0.01, vindecin 0.01, etoposide 0.5, bleomycin 1, mitoxantrone 0.05, mitomycine 0.5), l-OHP 1 μg/ml added day 1
[9] = smaller dosage of compatible agent added day 1 (μg/ml: cisplatin 0.5, 5-FU 5, irinotecane 10, adriamycin 0.01, vincristin 0.01, vindecin 0.01, etoposide 0.5, bleomycin 1, mitoxantrone 0.05, mitomycine 0.5), l-OHP 1 μg/ml

In the case of `N.N.[Cl][Pt][Cl]` [cisplatin], the “extinction rate of the parent cells relative to that of the resistance cells” value [1] is reported as “about twice”, the “extinction rates against the parent cells and the resistance cells compared” value [2] is reported as “substantially the same as each other” and the “compatible administration effect with l-OHP, summary in words” value ([3]; compatible administration with l-OHP) is reported as “the additive effect or the synergistic effect regardless of the administration method and the dosage in almost all the cases; also recorded: synergistic effects can be obtained in all the cases when the cisplatin and the l-OHP are simultaneously administrated and the l-OHP is administrated before the cisplatin; also recorded: effect about twice the expected value is obtained in most cases when the l-OHP administration is preceded and the cisplatin is added later”. For the same compound, the “Compatible Effects of l-OHP and Compatible Agent, Time Lag Administration, Addition Administration of Compatible Agent day 2” value [3, 6] was “• (•: Synergistic Effect)”, the “Compatible Effects of l-OHP and Compatible Agent, Time Lag Administration, Addition Administration of Compatible Agent day 3” value [3, 6] was “• (•: Synergistic Effect)” and the “Compatible Effects of l-OHP and Compatible Agent, Time Lag Administration, Addition Administration of Compatible Agent day 4” value [3, 6] was “• (•: Synergistic Effect)”. The “Compatible Effects of l-OHP and Compatible Agent, Simultaneous Administration” value ([3]; larger dosage of compatible agent (μg/ml: cisplatin 1, 5-FU 10, irinotecane 10, adriamycin 0.05, vincristin 0.05, vindecin 0.05, etoposide 1, bleomycin 10, mitoxantrone 0.1, mitomycine 1), l-OHP 1 μg/ml (5 μg/ml with irinotecane)) was “• (•: Synergistic Effect)”, the “Compatible Effects of l-OHP and Compatible Agent, Time Lag Administration, Addition Administration of l-OHP day 2” value [3, 7] was “• (•: Synergistic Effect)” and the “Compatible Effects of l-OHP and Compatible Agent, Time Lag Administration, Addition Administration of l-OHP day 3” value [3, 7] was “◯ (◯: Additive Effect)”. For the same compound, the “Compatible Effects of l-OHP and Compatible Agent, Time Lag Administration, Addition Administration of l-OHP day 4” value [3, 7] was “◯ (◯: Additive Effect)”, the “Compatible Effects of l-OHP and Compatible Agent, Time Lag Administration, Addition Administration of Compatible Agent day 2” value [3, 8] was “• (•: Synergistic Effect)” and the “Compatible Effects of l-OHP and Compatible Agent, Time Lag Administration, Addition Administration of Compatible Agent day 3” value [3, 8] was “• (•: Synergistic Effect)”. For the same compound, the “Compatible Effects of l-OHP and Compatible Agent, Time Lag Administration, Addition Administration of Compatible Agent day 4” value [3, 8] was “• (•: Synergistic Effect)”, the “Compatible Effects of l-OHP and Compatible Agent, Simultaneous Administration” value ([3]; smaller dosage of compatible agent (μg/ml: cisplatin 0.5, 5-FU 5, irinotecane 10, adriamycin 0.01, vincristin 0.01, vindecin 0.01, etoposide 0.5, bleomycin 1, mitoxantrone 0.05, mitomycine 0.5), l-OHP 1 μg/ml) was “◯ (◯: Additive Effect)” and the “Compatible Effects of l-OHP and Compatible Agent, Time Lag Administration, Addition Administration of l-OHP day 2” value [3, 9] was “Δ (Δ: Below Additive Effect)”. The “Compatible Effects of l-OHP and Compatible Agent, Time Lag Administration, Addition Administration of l-OHP day 3” value [3, 9] was “Δ (Δ: Below Additive Effect)” and the “Compatible Effects of l-OHP and Compatible Agent, Time Lag Administration, Addition Administration of l-OHP day 4” value [3, 9] was “Δ (Δ: Below Additive Effect)”.

With `CN1CCN(c2ccc3[nH]c(-c4ccc5[nH]c(-c6ccc(O)cc6)nc5c4)nc3c2)CC1` [Hoechst 33258] the “toxicity of fluorescence dye to the cell” value ([4]; dye bonded to living cells) was “toxicity is too strong to keep the cell alive”.

In the case of `CN(C)c1ccc2cc3ccc(N(C)C)cc3nc2c1` [acridine orange], the “toxicity of fluorescence dye to the cell” value [4] is reported as “toxicity is too strong to keep the cell alive”.

For `Cl.Cl.N=C(N)c1ccc(-c2cc3ccc(C(=N)N)cc3[nH]2)cc1` [DAPI, 4′,6-diamidino-2-phenylindole•2HCl], the “effect of fluorescence dye on living cells” value [5] is given as “without extinguishing the cells”.

Source: patent US6518278B1, “Carcinostatic substance for compatible administration, process of administrating same and process of rapidly inspecting same” (Debio Pharm S.A., priority 1994, dated 2003)
